Reference: paper PMC12121777 (PLOS One, 2025)
Values after ≈ are worked out from the molar mass of the structure shown. Like-named read-outs stand apart in the source and are kept apart here.

Tests used:
HepG2 cells = test: Cytotoxicity on HepG2 cell line (CellTiter 96); type: cell-based, human; settings: for IC50: read-out: IC50 HepG2
[1] = system: Mycobacterium avium 330/88; test: MIC, micro method in Šula's semisynthetic medium, M. avium; type: cell-based
[2] = system: Mycobacterium kansasii 6509/96; test: MIC, micro method in Šula's semisynthetic medium, M. kansasii clinical isolate; type: cell-based; settings: read-out: MIC M. kansasii 6509/96
Mtb 331/88 (i.e., H37Rv) = test: MIC, micro method in Šula's semisynthetic medium, drug-susceptible Mtb; type: cell-based, Mycobacterium tuberculosis; settings: for MIC: Mycobacterium tuberculosis, H37RV
Mtb H37Ra pVV2-dprE2 = test: microbe, parasite or virus in culture; type: cell-based; settings: Mycobacterium tuberculosis, 672 h, 28 days
[3] = system: Mtb H37Ra pVV2-dprE1/dprE2; test: microbe, parasite or virus in culture; type: cell-based; settings: Mycobacterium tuberculosis, 672 h, 28 days
Mtb H37Ra pVV2 = test: microbe, parasite or virus in culture; type: cell-based; settings: Mycobacterium tuberculosis, 672 h, 28 days
Mtb H37Rv = test: Metabolic labeling with 14C acetate and TLC lipid analysis; settings: 10× and 100× MIC, 14C acetate, 24 h
[4] = 330/88, 336 h, read-out: MIC M. avium 330/88
[5] = 330/88, 504 h, read-out: MIC M. avium 330/88

SMILES	IC50 (HepG2 cells; Homo sapiens, HepG2, 24 h) [µM]	MIC [1, 4] [µM]	MIC [1, 5] [µM]	MIC ([2]; 6509/96, 168 h) [µM]	MIC ([2]; 6509/96, 336 h) [µM]	MIC ([2]; 6509/96, 504 h) [µM]	MIC (Mtb 331/88 (i.e., H37Rv); 336 h, 14 days) [µM]	MIC (Mtb 331/88 (i.e., H37Rv); 504 h, 21 days) [µM]	further results
CCCCCCCCCNC(=O)NNC(=O)c1cc([N+](=O)[O-])cc([N+](=O)[O-])c1 [Compound 4i, 2-(3,5-Dinitrobenzoyl)-N-nonylhydrazine-1-carboxamide]	125	125 (≈ 49.4 µg/mL)	250 (≈ 98.9 µg/mL)	1 (≈ 0.395 µg/mL)	1 (≈ 0.395 µg/mL)	1 (≈ 0.395 µg/mL)	0.5 (≈ 0.198 µg/mL)	1 (≈ 0.395 µg/mL)	MIC ([1]; 330/88, read-out: MIC M. avium): 125 to 250 µM (≈ 49.4 to 98.9 µg/mL)
CCCCCCCCCCNC(=O)NNC(=O)c1cc([N+](=O)[O-])cc([N+](=O)[O-])c1 [Compound 4j, N-Decyl-2-(3,5-dinitrobenzoyl)hydrazine-1-carboxamide]	141	> 500	> 500	1 (≈ 0.409 µg/mL)	2 (≈ 0.819 µg/mL)	4 (≈ 1.64 µg/mL)	1 (≈ 0.409 µg/mL)	1 (≈ 0.409 µg/mL)	–
CCCCCCCCCCCNC(=O)NNC(=O)c1cc([N+](=O)[O-])cc([N+](=O)[O-])c1 [Compound 4k, 2-(3,5-Dinitrobenzoyl)-N-undecylhydrazine-1-carboxamide]	< 100	> 500	> 500	2 (≈ 0.847 µg/mL)	4 (≈ 1.69 µg/mL)	4 (≈ 1.69 µg/mL)	1 (≈ 0.423 µg/mL)	1 (≈ 0.423 µg/mL)	IC50 (HepG2 cells): 99.9 µM
CCCCCCCCCCCCNC(=O)NNC(=O)c1cc([N+](=O)[O-])cc([N+](=O)[O-])c1 [Compound 4l, 2-(3,5-Dinitrobenzoyl)-N-dodecylhydrazine-1-carboxamide]	166	> 250	> 250	2 (≈ 0.875 µg/mL)	2 (≈ 0.875 µg/mL)	4 (≈ 1.75 µg/mL)	2 (≈ 0.875 µg/mL)	2 (≈ 0.875 µg/mL)	–
CCCCCCCCCCCCCNC(=O)NNC(=O)c1cc([N+](=O)[O-])cc([N+](=O)[O-])c1 [Compound 4m, 2-(3,5-Dinitrobenzoyl)-N-tridecylhydrazine-1-carboxamide]	163	> 500	> 500	2 (≈ 0.903 µg/mL)	2 (≈ 0.903 µg/mL)	4 (≈ 1.81 µg/mL)	2 (≈ 0.903 µg/mL)	4 (≈ 1.81 µg/mL)	–
CCCCCCCCCCCCCCNC(=O)NNC(=O)c1cc([N+](=O)[O-])cc([N+](=O)[O-])c1 [Compound 4n, 2-(3,5-Dinitrobenzoyl)-N-tetradecylhydrazine-1-carboxamide]	207	> 500	> 500	4 (≈ 1.86 µg/mL)	8 (≈ 3.72 µg/mL)	8 (≈ 3.72 µg/mL)	4 (≈ 1.86 µg/mL)	8 (≈ 3.72 µg/mL)	–
CCCCCCCCCCCCCCCNC(=O)NNC(=O)c1cc([N+](=O)[O-])cc([N+](=O)[O-])c1 [Compound 4o, 2-(3,5-Dinitrobenzoyl)-N-pentadecylhydrazine-1-carboxamide]	< 100	> 500	> 500	8 (≈ 3.84 µg/mL)	8 (≈ 3.84 µg/mL)	16 (≈ 7.67 µg/mL)	8 (≈ 3.84 µg/mL)	16 (≈ 7.67 µg/mL)	IC50 (HepG2 cells): 82.5 µM
CCCCCCCCCCCCNC(=S)NNC(=O)c1cc([N+](=O)[O-])cc([N+](=O)[O-])c1 [Compound 4s, 2-(3,5-Dinitrobenzoyl)-N-dodecylhydrazine-1-carbothioamide]	–	16 (≈ 7.26 µg/mL)	16 (≈ 7.26 µg/mL)	1 (≈ 0.454 µg/mL)	1 (≈ 0.454 µg/mL)	2 (≈ 0.907 µg/mL)	2 (≈ 0.907 µg/mL)	2 (≈ 0.907 µg/mL)	MIC (Mtb H37Ra pVV2-dprE2): 2 µM (≈ 0.907 µg/mL); MIC [3]: > 4 µM; MIC (Mtb H37Ra pVV2): 2 µM (≈ 0.907 µg/mL); lipid profile of treated cells vs untreated cells (Mtb H37Rv): accumulation of TMM and TDM
CCCCNc1nnc(-c2cc([N+](=O)[O-])cc([N+](=O)[O-])c2)o1 [Compound 5d, N-Butyl-5-(3,5-dinitrophenyl)-1,3,4-oxadiazol-2-amine]	> 250	64 (≈ 19.7 µg/mL)	125 (≈ 38.4 µg/mL)	1 (≈ 0.307 µg/mL)	2 (≈ 0.615 µg/mL)	2 (≈ 0.615 µg/mL)	0.5 (≈ 0.154 µg/mL)	0.5 (≈ 0.154 µg/mL)	–
CCCCCNc1nnc(-c2cc([N+](=O)[O-])cc([N+](=O)[O-])c2)o1 [Compound 5e, 5-(3,5-Dinitrophenyl)-N-pentyl-1,3,4-oxadiazol-2-amine]	> 250	> 500	> 500	0.25 (≈ 0.0803 µg/mL)	0.5 (≈ 0.161 µg/mL)	0.5 (≈ 0.161 µg/mL)	0.25 (≈ 0.0803 µg/mL)	0.25 (≈ 0.0803 µg/mL)	–
CCCCCCNc1nnc(-c2cc([N+](=O)[O-])cc([N+](=O)[O-])c2)o1 [Compound 5f, 5-(3,5-Dinitrophenyl)-N-hexyl-1,3,4-oxadiazol-2-amine]	> 100	≤ 1	≤ 1	0.25 (≈ 0.0838 µg/mL)	0.5 (≈ 0.168 µg/mL)	0.5 (≈ 0.168 µg/mL)	≤ 0.03	≤ 0.03	selectivity (SI) for M. avium (HepG2 cells; ratio of IC50 (HepG2) to MIC): > 100; MIC ([1]; 330/88, read-out: MIC M. avium): 1 µM (≈ 0.335 µg/mL); fold more potent than precursor 4 against Mtb (Mtb 331/88 (i.e., H37Rv); oxadiazole 5 vs hydrazinecarboxamide 4 counterpart): ≥ 33.3 fold
CCCCCCCCNc1nnc(-c2cc([N+](=O)[O-])cc([N+](=O)[O-])c2)o1 [Compound 5h, 5-(3,5-Dinitrophenyl)-N-octyl-1,3,4-oxadiazol-2-amine]	> 100	8 (≈ 2.91 µg/mL)	16 (≈ 5.81 µg/mL)	≤ 0.03	0.06 (≈ 0.0218 µg/mL)	0.06 (≈ 0.0218 µg/mL)	0.06 (≈ 0.0218 µg/mL)	0.06 (≈ 0.0218 µg/mL)	–
CCCCCCCCCNc1nnc(-c2cc([N+](=O)[O-])cc([N+](=O)[O-])c2)o1 [Compound 5i, 5-(3,5-Dinitrophenyl)-N-nonyl-1,3,4-oxadiazol-2-amine]	> 100	8 (≈ 3.02 µg/mL)	16 (≈ 6.04 µg/mL)	≤ 0.03	0.06 (≈ 0.0226 µg/mL)	0.06 (≈ 0.0226 µg/mL)	0.06 (≈ 0.0226 µg/mL)	0.06 (≈ 0.0226 µg/mL)	–
CCCCCCCCCCNc1nnc(-c2cc([N+](=O)[O-])cc([N+](=O)[O-])c2)o1 [Compound 5j, N-Decyl-5-(3,5-dinitrophenyl)-1,3,4-oxadiazol-2-amine]	> 100	4 (≈ 1.57 µg/mL)	8 (≈ 3.13 µg/mL)	1 (≈ 0.391 µg/mL)	1 (≈ 0.391 µg/mL)	1 (≈ 0.391 µg/mL)	0.5 (≈ 0.196 µg/mL)	1 (≈ 0.391 µg/mL)	–
CCCCCCCCCCCNc1nnc(-c2cc([N+](=O)[O-])cc([N+](=O)[O-])c2)o1 [Compound 5k, 5-(3,5-Dinitrophenyl)-N-undecyl-1,3,4-oxadiazol-2-amine]	> 50	4 (≈ 1.62 µg/mL)	4 (≈ 1.62 µg/mL)	1 (≈ 0.405 µg/mL)	1 (≈ 0.405 µg/mL)	1 (≈ 0.405 µg/mL)	0.5 (≈ 0.203 µg/mL)	1 (≈ 0.405 µg/mL)	–
CCCCCCCCCCCCNc1nnc(-c2cc([N+](=O)[O-])cc([N+](=O)[O-])c2)o1 [Compound 5l, 5-(3,5-Dinitrophenyl)-N-dodecyl-1,3,4-oxadiazol-2-amine]	> 50	4 (≈ 1.68 µg/mL)	8 (≈ 3.36 µg/mL)	1 (≈ 0.419 µg/mL)	1 (≈ 0.419 µg/mL)	1 (≈ 0.419 µg/mL)	1 (≈ 0.419 µg/mL)	1 (≈ 0.419 µg/mL)	–
CCCCCCCCCCCCCNc1nnc(-c2cc([N+](=O)[O-])cc([N+](=O)[O-])c2)o1 [Compound 5m, 5-(3,5-Dinitrophenyl)-N-tridecyl-1,3,4-oxadiazol-2-amine]	> 50	8 (≈ 3.47 µg/mL)	16 (≈ 6.94 µg/mL)	≤ 0.03	0.06 (≈ 0.026 µg/mL)	0.125 (≈ 0.0542 µg/mL)	0.125 (≈ 0.0542 µg/mL)	0.5 (≈ 0.217 µg/mL)	–
CCCCCCCCCCCCCCNc1nnc(-c2cc([N+](=O)[O-])cc([N+](=O)[O-])c2)o1 [Compound 5n, 5-(3,5-Dinitrophenyl)-N-tetradecyl-1,3,4-oxadiazol-2-amine]	> 50	8 (≈ 3.58 µg/mL)	16 (≈ 7.16 µg/mL)	0.25 (≈ 0.112 µg/mL)	0.5 (≈ 0.224 µg/mL)	1 (≈ 0.448 µg/mL)	1 (≈ 0.448 µg/mL)	1 (≈ 0.448 µg/mL)	–
CCCCCCCCCCCCCCCNc1nnc(-c2cc([N+](=O)[O-])cc([N+](=O)[O-])c2)o1 [Compound 5o, 5-(3,5-Dinitrophenyl)-N-pentadecyl-1,3,4-oxadiazol-2-amine]	> 50	8 (≈ 3.69 µg/mL)	16 (≈ 7.39 µg/mL)	0.5 (≈ 0.231 µg/mL)	1 (≈ 0.462 µg/mL)	2 (≈ 0.923 µg/mL)	2 (≈ 0.923 µg/mL)	2 (≈ 0.923 µg/mL)	–
CCCCCCCCCCCCNc1nnc(-c2cc([N+](=O)[O-])cc([N+](=O)[O-])c2)s1 [Compound 5s, 5-(3,5-Dinitrophenyl)-N-dodecyl-1,3,4-thiadiazol-2-amine]	–	64 (≈ 27.9 µg/mL)	125 (≈ 54.4 µg/mL)	1 (≈ 0.436 µg/mL)	1 (≈ 0.436 µg/mL)	1 (≈ 0.436 µg/mL)	1 (≈ 0.436 µg/mL)	1 (≈ 0.436 µg/mL)	MIC (Mtb H37Ra pVV2-dprE2): < 0.1 µM; MIC [3]: 0.5 µM (≈ 0.218 µg/mL); MIC (Mtb H37Ra pVV2): < 0.1 µM; lipid profile of treated cells vs untreated cells (Mtb H37Rv): accumulation of TMM and TDM
NNC(=O)c1ccncc1 [INH, isoniazid, reference compound]	–	–	–	–	–	–	0.5 (≈ 0.0686 µg/mL)	0.5 (≈ 0.0686 µg/mL)	IC50 (HepG2 cells; Homo sapiens, HepG2, 24 h incubation): > 1000 µM; MIC ([1]; 330/88, 336 h, 14 days, * = growth still observed at this concentration, turbidity or precipitate above, read-out: MIC M. avium 330/88): > 250 µM; MIC ([1]; 330/88, 504 h, 21 days, * = growth still observed at this concentration, turbidity or precipitate above, read-out: MIC M. avium 330/88): > 250 µM; MIC ([2]; 6509/96, 168 h, 7 days): 4 µM (≈ 0.549 µg/mL); MIC ([2]; 6509/96, 336 h, 14 days): 8 µM (≈ 1.1 µg/mL); MIC ([2]; 6509/96, 504 h, 21 days): 8 µM (≈ 1.1 µg/mL)
